According to patent publication US10323043B2, “Derivatives of macrocyclic N-aryl-tricyclopyrimidine-2-amine polyethers as inhibitors of FTL3 and JAK” (PIERRE FABRE MEDICAMENT, priority 2014, dated 2019):

How the values were obtained:
JAK3 = molecular target: T1, JAK3 (Homo sapiens, UniProt P52333); test: LanthaScreen TR-FRET binding test, JAK3; details: recombinant JAK3 15 nM, kinase tracer 236 3 nM, 25° C., 1 hour; read-out: Inhibition (IC50) of JAK3 enzyme
T1 construct: purchased Life Technologies PV3855
T1 sequence (P52333 1-1124): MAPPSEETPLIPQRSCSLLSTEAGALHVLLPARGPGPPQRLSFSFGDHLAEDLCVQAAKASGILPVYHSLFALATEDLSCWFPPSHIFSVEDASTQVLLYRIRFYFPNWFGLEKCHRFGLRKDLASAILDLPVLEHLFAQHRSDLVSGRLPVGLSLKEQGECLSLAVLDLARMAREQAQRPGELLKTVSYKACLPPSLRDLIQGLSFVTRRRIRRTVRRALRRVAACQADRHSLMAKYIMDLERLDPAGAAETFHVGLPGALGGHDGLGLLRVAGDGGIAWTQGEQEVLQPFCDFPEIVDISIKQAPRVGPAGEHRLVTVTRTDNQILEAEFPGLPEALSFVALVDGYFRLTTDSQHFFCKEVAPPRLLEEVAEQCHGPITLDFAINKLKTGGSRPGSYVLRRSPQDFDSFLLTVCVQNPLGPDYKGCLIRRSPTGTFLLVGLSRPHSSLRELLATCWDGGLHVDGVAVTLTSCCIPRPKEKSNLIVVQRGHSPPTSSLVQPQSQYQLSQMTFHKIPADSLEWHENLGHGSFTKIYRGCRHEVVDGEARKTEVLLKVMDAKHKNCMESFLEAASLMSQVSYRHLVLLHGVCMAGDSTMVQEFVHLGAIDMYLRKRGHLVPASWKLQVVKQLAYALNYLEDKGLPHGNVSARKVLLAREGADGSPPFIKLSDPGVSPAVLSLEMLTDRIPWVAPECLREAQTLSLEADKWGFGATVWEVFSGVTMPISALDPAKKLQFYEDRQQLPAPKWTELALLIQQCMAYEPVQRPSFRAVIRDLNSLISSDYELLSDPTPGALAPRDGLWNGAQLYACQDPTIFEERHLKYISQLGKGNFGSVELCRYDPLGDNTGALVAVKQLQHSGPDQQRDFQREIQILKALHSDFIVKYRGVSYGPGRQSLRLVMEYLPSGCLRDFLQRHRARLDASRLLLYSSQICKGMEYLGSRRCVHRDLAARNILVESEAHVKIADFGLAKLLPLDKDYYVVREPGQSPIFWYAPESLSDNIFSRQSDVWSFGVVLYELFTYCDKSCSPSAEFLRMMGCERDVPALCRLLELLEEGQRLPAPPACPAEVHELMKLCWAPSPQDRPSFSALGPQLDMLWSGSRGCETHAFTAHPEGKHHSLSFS
Procedure: (§1) FLT3 (#PV3182), JAK2 (#PV4210) and JAK3 (#PV3855) recombinant enzymes were purchased from Life Technologies. FLT3-ITD (#0778-0000-1) and FLT3^D835Y (#14-610) proteins were purchased from ProQinase and Merck Millipore, respectively. All the tests were carried out in 384-well plates. The principle of these binding tests is based on the LanthaScreen® TR-FRET methodology from Life Technologies.
The reaction mixture (15 μL total volume) contains the following compounds: 15 nM JAK2 or JAK3, 150 nM kinase tracer 236 (Life Technologies, #PV5592) for JAK2 or 3 nM for JAK3 and 6 nM LanthaScreen® anti-GST antibody coupled to a europium chelate (Life Technologies, #PV5594) for both enzymes.
(§2) The compounds are evaluated at 8 different concentrations prepared by making dilutions from a starting 10 mM stock solution in dimethylsulfoxide (DMSO) (Sigma, #D8418). The final DMSO concentration in the test is 1%. The reaction is carried out at 25° C. for 1 hour and detected on the EnVision® reader (Perkin Elmer) according to the recommendations of the supplier, Life Technologies.
(§3) The results are presented (Table 1) as the concentration values of the compound at which 50% of the kinase activity is inhibited, IC50 (μM), generated using the PRISM software (GraphPad).

FLT3 = molecular target: T2, FLT3 (Homo sapiens, UniProt P36888); test: LanthaScreen TR-FRET binding test, FLT3; details: recombinant FLT3 15 nM, kinase tracer 236 3 nM, 25° C., 1 hour; read-out: Inhibition (IC50) of FLT3 enzyme
T2 construct: purchased Life Technologies PV3182
T2 sequence (P36888 564-993 limits assumed): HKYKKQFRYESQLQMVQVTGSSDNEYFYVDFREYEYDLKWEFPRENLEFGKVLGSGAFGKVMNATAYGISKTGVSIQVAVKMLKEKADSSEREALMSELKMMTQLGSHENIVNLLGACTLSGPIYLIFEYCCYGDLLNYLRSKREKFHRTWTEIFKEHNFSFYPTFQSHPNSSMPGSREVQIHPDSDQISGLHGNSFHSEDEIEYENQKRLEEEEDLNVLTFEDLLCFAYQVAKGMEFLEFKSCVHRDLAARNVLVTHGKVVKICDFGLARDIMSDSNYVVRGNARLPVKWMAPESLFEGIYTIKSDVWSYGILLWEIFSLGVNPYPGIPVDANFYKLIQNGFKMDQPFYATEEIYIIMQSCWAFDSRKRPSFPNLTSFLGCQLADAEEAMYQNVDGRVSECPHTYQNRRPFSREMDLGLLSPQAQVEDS
Procedure: as §1
The reaction mixture (15 μL total volume) contains the following compounds: 15 nM FLT3, FLT3-ITD or FLT3^D835Y, 3 nM kinase tracer 236 (Life Technologies, #PV5592) and 6 nM LanthaScreen® anti-GST antibody coupled to a europium chelate (Life Technologies, #PV5594) for FLT3-ITD and FLT3^D835Y or 6 nM LanthaScreen® anti-His antibody coupled to a europium chelate (Life Technologies, #PV5596) for FLT3.
as §2, §3

SMILES: CN1CCN(c2ccc3cc2OCCOCCOc2ccc4c(c2)-c2nc(ncc2CC4)N3)CC1 [Compound 3]
- IC50 (JAK3): 54 nM
- IC50 (FLT3): 2.5 nM

SMILES: c1cc(N2CCNCC2)c2cc1Nc1ncc3c(n1)-c1cc(ccc1CC3)OCCOCCO2 [Compound 5]
- IC50 (JAK3): 30 nM
- IC50 (FLT3): 4.4 nM

SMILES: c1cc(N2CCC(N3CCOCC3)C2)c2cc1Nc1ncc3c(n1)-c1cc(ccc1CC3)OCCOCCO2 (stereo not drawn) [Compound 7]
- IC50 (JAK3): 120 nM
- IC50 (FLT3): 18 nM

SMILES: c1cc(N2CCC(N3CCCCC3)CC2)c2cc1Nc1ncc3c(n1)-c1cc(ccc1CC3)OCCOCCO2 [Compound 10]
- IC50 (JAK3): 60 nM
- IC50 (FLT3): 6 nM

SMILES: c1cc(OCCN2CCCC2)c2cc1Nc1ncc3c(n1)-c1cc(ccc1CC3)OCCOCCO2 [Compound 14]
- IC50 (JAK3): 70 nM
- IC50 (FLT3): 7 nM

SMILES: OC1CCN(c2ccc3cc2OCCOCCOc2ccc4c(c2)-c2nc(ncc2CC4)N3)CC1 [Compound 19]
- IC50 (JAK3): 30 nM
- IC50 (FLT3): 3.6 nM

SMILES: CN1CC=C(c2ccc3cc2OCCOCCOc2ccc4c(c2)-c2nc(ncc2CC4)N3)CC1 [Compound 23]
- IC50 (JAK3): 110 nM
- IC50 (FLT3): 4.5 nM

SMILES: c1cc(N2CC3CNCC3C2)c2cc1Nc1ncc3c(n1)-c1cc(ccc1CC3)OCCOCCO2 (stereo not drawn) [Compound 29]
- IC50 (JAK3): 18 nM
- IC50 (FLT3): 3.7 nM

SMILES: CN(C)C1CCN(c2ccc3cc2OCCOCCOc2ccc4c(c2)-c2nc(ncc2CC4)N3)C1 (stereo not drawn) [Compound 30]
- IC50 (JAK3): 18 nM
- IC50 (FLT3): 3.2 nM

SMILES: CN1CCN(c2ccc3cc2OCCOCCOc2ccc4c(c2)-c2nc(ncc2CC4)N3)CC1(C)C [Compound 40]
- IC50 (JAK3): 17.6 nM
- IC50 (FLT3): 1.9 nM

SMILES: c1cc(N2CC3CCC(C2)N3)c2cc1Nc1ncc3c(n1)-c1cc(ccc1CC3)OCCOCCO2 [Compound 42]
- IC50 (JAK3): 13 nM
- IC50 (FLT3): 3.2 nM

SMILES: c1cc(N2C[C@H]3C[C@@H]2CN3)c2cc1Nc1ncc3c(n1)-c1cc(ccc1CC3)OCCOCCO2 [Compound 44]
- IC50 (JAK3): 35 nM
- IC50 (FLT3): 5.2 nM
